In publication PMC12801355, “Peptide Amphiphiles Hitchhike on Endogenous Biomolecules for Enhanced Cancer Imaging and Therapy” (Advanced Materials (Deerfield Beach, Fla.), 2025):
Where a SMILES comes first, the peptide text is derived from it. The star is where a group is joined. Palmitoyl = CCCCCCCCCCCCCCCC(=O)*

Key:
[1] = Blood circulation in mice; assay type: in vivo, mouse; conditions: wild type mice, 50 nmol IV
Protocol: For blood circulation experiments, Balb/c mice were injected with 100 µL of ICG conjugated PAs or No‐SA, or free ICG (0.5 mM). Then, blood was drawn via the saphenous vein or retro‐orbitally at different time points (immediately after injection to 1 day). […] Blood from wild type mice was collected to prepare calibration curves for each probe. To each 18 µL aliquot of blood, 2 µL of probe stock solution (0.5 mM) was added and incubated at 37 °C for 1 h. The spiked samples were then serially diluted in blood between 50 and 0.1 µM. For fluorescence measurement, 2 µL of each diluted sample was further diluted into 98 µL of PBS, and ICG fluorescence was measured using a TECAN plate reader.

[2] = tested on: 4T1 mouse breast cancer cells; test: Cellular uptake of Cy5 labeled PAs; assay type: cell-based; conditions: 10 µM Cy5‐PA, 2 h incubation at 37 °C
Protocol: To compare the uptake of SA‐E and SA‐K, 1 × 10^5 4T1 cells were grown to near confluency (1–2 days) in 96 well plates with black walls and flat glass bottom. 100% Cy5 conjugated PAs (20 or 10 µM) or 10% Cy5 conjugated PA micelles (10 µM Cy5‐PAs mixed with 90 µM maleimide blocked labeled PAs) were preincubated in 10% FBS containing RPMI for 30 min at 37 °C, wells were aspirated, and 100 µL of media containing PAs were added. The plate was incubated for 30 min for the experiments with 100% Cy5 conjugated PAs. Media were aspirated, wells were washed 3x with 150 µL sterile PBS, and then 100 µL RPMI containing 10% FBS was added to each well. The plate was incubated for 1 h at 37 °C. For 10% and 100% Cy5 micelle uptake comparison, plate was incubated for 2 h at 37 °C with PAs. Then, media containing PAs were aspirated and washed with PBS, as above. Cell nuclei were stained with Hoechst (1:5000 dilution in PBS) for 5 min and then removed. 100 µL of phenol red free RPMI containing 10% FBS was added to each well. […] The microscope incubator was preheated for 30 min to reach 35 °C prior to imaging.
To study the uptake of SA‐E or SA‐K micelles (10% or 100% Cy5 micelles) or No‐SA over time, 4T1 cells were grown to near confluency in a 96 well plate as described above. Cy5 conjugated 100% Cy5 conjugated PAs (20 µM), 10% Cy5 conjugated PAs (10 µM Cy5), or No‐SA (20 µM) or were preincubated in 10% FBS containing RPMI for 30 min at 37 °C. Cell nuclei were stained with Hoechst stain as above. Cell membranes were stained (CellBrite 488, 1:1000 in 10% FBS containing RPMI) for 30 min at 37 °C. Wells were aspirated, and 100 µL of PAs were added to the wells for ≈1 min. Wells were washed with sterile PBS (3x, 150 µL), and Confocal images were taken at different time points (up to 2 h) after PA or No‐SA addition as described above using a 60x objective.

4T1 cells = test: Uptake of SA‐E in the presence of inhibitors; assay type: cell-based, mouse; conditions: inhibitor 10 µM, 20 min pre‐incubation, Cy5 SA‐E 20 µM, FBS free media
Protocol: To explore the effect of serum proteins and different inhibitors on the cellular uptake of SA‐E, 4T1 cells were grown to near confluency in 96 well plates, as described above. For cellular uptake mechanism studies, the growth media (RPMI containing 10% FBS) was exchanged for 100 µL of FBS free media, then returned to the incubator. Inhibitors (brefeldin A, bromsulphalein, chlorpromazine hydrochloride, cis‐ACBD, filipin, heparin, methyl‐β‐cyclodextrin, or wortmannin) were made in FBS free media at a concentration of 1 mM. Then, 1 µL of media containing inhibitors was added to wells, so that the final drug concentration in each well was 10 µM. The plate was returned to the incubator for 20 min. After incubation, Cy5 conjugated SA‐E was added to all wells such that the final concentration was 20 µM per well. The plate was returned to the incubator for 30 min. Wells were aspirated and washed with PBS as above. 100 µL of FBS free media was added, and the plate was returned to the incubator for 1 h. Finally, Hoechst staining and fluorescence imaging were performed using a Leica Thunder DMi8 fluorescent microscope, as described above.

[3] = PA fluorescence in liver homogenates; assay type: in vitro ADME; conditions: ICG conjugated, 0.1 to 10 µM spiked into mouse liver homogenate, IVIS
Protocol: Liver samples (6.2 g total weight) collected from healthy BALB/cJ mice were placed in a gentleMACS M Tube containing 2 mL of PBS. The M Tube was fitted with a 600 µm mesh strainer, and homogenization was performed using a gentleMACS Dissociator by running a one‐minute program at 1260 rotations per round (rpr) for five cycles. ICG conjugated SA‐E and SA‐K were then spiked into the liver homogenates in a 96‐well plate at final concentrations of 0, 0.1, 0.5, 2.0, 5.0, and 10 µM. Fluorescence signals from the homogenates were measured using an IVIS (PerkinElmer).

4T1 tumor = test: Tumor accumulation, live IVIS imaging; assay type: in vivo, mouse
Protocol: (§1) For tumor accumulation studies in subcutaneous (HCT‐116, A375, TRAMP‐C2, MC38, LLC1, RG2, PDX cell lines, wild type or SR‐B1 ‐/‐ TRAMP‐C2, and wild type or LDL‐R ‐/‐ HeLa), intradermal (A375), or fat pad (4T1 and MCF‐7) tumors, cells were implanted as described above. When the tumors reached a size around ≈0.3–1 cm, mice were injected intravenously with 100 µL of ICG conjugated PAs (in PBS, 0.5 mM) or free ICG (in PBS, 0.5 mM). After probe injections, mice were imaged using the IVIS Spectrum (PerkinElmer) with excitation and emission wavelengths of 745 and 820 nm, respectively, at the specified time points. Living Image (PerkinElmer) software was used for all analyses. For MMTV mice experiments, mice were injected intravenously weekly with SA‐E (100 µL PBS, 0.5 mM) between 71 and 85 days of age and imaged 2 days later in the IVIS. […] SA‐E was injected intravenously (100 µL PBS, 0.5 mM), 2 days later the intestinal tissue was harvested, washed, and analyzed in the IVIS for ICG.

TRAMP‐C2 tumors = test: Tumor accumulation in wild type or SR‐B1‐/‐ tumors; assay type: in vivo, mouse; conditions: 50 nmol IV, 2 days
Protocol: as §1

[4] = tested on: LPs (HDL, LDL, VLDL) and albumin in pooled human plasma
Protocol: FPLC experiments were performed using SA‐E, SA‐K, or No‐SA conjugated with ICG or SA‐E conjugated with MMAE at a final concentration of 250 µM in filtered PBS (10 mM, pH 7.4) with or without human plasma or purified LPs or albumin. For analysis of SA‐E interactions with purified LPs, VLDL, LDL, HDL, and human serum albumin were diluted in filtered PBS to approximate concentrations found in 10% human plasma: 0.0025, 0.13, 0.05, and 5mg mL^−1, respectively. SA‐E was incubated with the purified LP/protein mixture for 30 min at 37 °C before injection. For analysis of plasma interactions, PAs or No‐SA were incubated in PBS containing 10% pooled human plasma for 30 min at 37 °C before injection. The total volume injected for all samples was 400 µL. All data was collected on an ÄKTA pure chromatography system using the following running conditions: size exclusion chromatography on a Superose 6 Increase 10/300 GL column with a column volume (CV) of 30 mL, pre‐column pressure limit of 5 MPa, delta‐column pressure limit of 2.6 MPa, flow rate of 0.75 mL min^−1, in 100% PBS. The sample running method included first an equilibration step before injection of the sample with 100% PBS for 0.5 CV, followed by sample application via 1 mL capillary loop in 100% PBS, and finished with a linear elution consisting of 2 CV collected in 1 mL fractions. The UV‐Vis detector wavelengths were 250, 280, and 700 nm to detect MMAE, all proteins/LPs, and ICG, respectively.

[5] = 4T1 tumor‐bearing mice, 50 nmol IV

SMILES: CCCCCCCCCCCCCCCC(=O)NCC(=O)NCC(=O)NCC(=O)N[C@@H](Cc1c[nH]cn1)C(=O)N[C@@H](C)C(=O)N[C@@H](C)C(=O)N[C@@H](CC(N)=O)C(=O)NCC(=O)N[C@@H](CCC(=O)O)C(=O)N[C@@H](CCC(=O)O)C(=O)N[C@@H](CS)C(=O)N[C@@H](CCC(=O)O)C(=O)O [SA‐E] (Palmitoyl-GGGHAANGEECE-OH)
- AUC of blood circulation plot relative to SA‐K [1]: 2.1 fold
- uptake of 10% Cy5 micelles relative to 100% Cy5 micelles [2]: no significant difference
- cellular uptake with Filipin (4T1 cells): decreased SA‐E uptake to a lesser extent
- cellular uptake with Methyl‐β‐cyclodextrin (4T1 cells): Significant decreases
- cellular uptake with Wortmannin (4T1 cells): Significant decreases
- cellular uptake with bromosulfalein (BSP) (4T1 cells): no change
- cellular uptake with cis‐ACBD (4T1 cells): no change
- fluorescence in liver homogenates, SA‐E versus SA‐K (disassembly) [3]: almost identical fluorescence intensity
- day of 50% decrease in the tumor signal (4T1 tumor; [5]): 3 days
- retention of tumor signal (4T1 tumor; [5]): still detectable levels even 2 weeks after injection
- time at which background signal was mostly cleared (4T1 tumor; [5]): 2 days
- total tumor accumulation relative to No‐SA (4T1 tumor; [5]): ≈ 1.6 fold
- time of maximum tumor fluorescence (4T1 tumor; 4T1 tumor‐bearing mice, ICG conjugated, 50 nmol IV): 11 h
- retention in the tumor (4T1 tumor; biodistribution studies, summary in introduction): more than 2 weeks
- maximum TBR (4T1 tumor; days 2 to 8, 50 nmol IV): 5–6
- tumor accumulation, SR‐B1 knockout versus wild type tumors (TRAMP‐C2 tumors): not needed for tumor accumulation
- amount bound to albumin, lower than bound to HDL [4]: approximately two‐fold
